Paper PMC7377239, “Cardiovascular Effects of Polychlorinated Biphenyls and Their Major Metabolites” (Environmental Health Perspectives, 2020)
Counter-ions that a name gives are not always drawn. Like-named read-outs stand apart in the source and are kept apart here.

Columns and labels:
[1] = test system: iCell endothelial cells (human iPSC-derived ECs); experiment: Tube formation (tubulogenesis) assay in iCell endothelial cells, 18 h; type: cell-based; conditions: Homo sapiens, Endothelial cell, iPSC-EC tube formation, 18 hr; for activity at 0.1 µM: 0.10 µM; for minimal effective concentration: top concentration 100.00 µM
Summary of the method: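 iCell ECs (passages 1–5) seeded 7,500 cells/well on reduced-growth-factor Geltrex in starvation medium, exposed overnight at 37°C to compounds in triplicate concentration–response (0.5% DMSO vehicle). Calcein AM staining, 4× imaging, angiogenesis image analysis; readouts normalized to vehicle, four-parameter logistic fit, POD at 1 SD of vehicle; 100 μM assigned NOAEL if no response.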

HUVECs = experiment: Tube formation (tubulogenesis) assay in HUVECs, 18 h; type: cell-based, human; conditions: Homo sapiens, HUVEC, 18 h, HUVECs; for activity at 0.1 µM: 0.10 µM; for minimal effective concentration: top concentration 100.00 µM
Summary of the method: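 HUVECs (passage 1–5) seeded on reduced-growth-factor basement membrane and exposed to compounds overnight at 37°C, 5% CO2, in 2× maintenance medium with 12.5 ng/mL VEGF; 0.5% DMSO vehicle. Calcein AM-stained tube networks imaged and analysed; vehicle-normalized readouts fit to four-parameter logistic, POD set at one SD of vehicle means.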

[2] = 0.00 µM control = 100.00, read-out: endo.mtl.18hr
[3] = 0.00 µM control = 100.00, read-out: endo.tlps.18hr
[4] = 0.00 µM control = 100.00, read-out: endo.tta.18hr
[5] = 0.00 µM control = 100.00, read-out: endo.ttl.18hr
[6] = 0.00 µM = 100.00, read-out: huvec.mtl.18hr
[7] = 0.00 µM = 100.00, read-out: huvec.tlps.18hr
[8] = 0.00 µM = 100.00, read-out: huvec.tta.18hr
[9] = 0.00 µM = 100.00, read-out: huvec.ttl.18hr

Question: With `O=S(=O)(O)Oc1ccc(-c2cccc(Cl)c2)cc1Cl` [4-yl PCB 11 sulfate] as the molecule, how does the activity at 0.01 µM [1, 2] read?
Answer: 107%

Question: And the activity at 0.01 µM [1, 3]?
Answer: 113%

Question: What about the activity at 0.01 µM [1, 4] of the same molecule?
Answer: 174%

Question: What about the activity at 0.01 µM [1, 5] of the same molecule?
Answer: 179%

Question: What about the activity at 0.1 µM [1, 2] of the same molecule?
Answer: 122%

Question: What about the activity at 0.1 µM [1, 3] of the same molecule?
Answer: 98.8%

Question: And the activity at 0.1 µM [1, 4]?
Answer: 119%

Question: And the activity at 0.1 µM [1, 5]?
Answer: 124%

Question: And the activity at 1 µM [1, 2]?
Answer: 113%

Question: And the activity at 1 µM [1, 3]?
Answer: 103%

Question: What about the activity at 1 µM [1, 4] of the same molecule?
Answer: 124%

Question: And the activity at 1 µM [1, 5]?
Answer: 128%

Question: What about the activity at 10 µM [1, 2] of the same molecule?
Answer: 94.3%

Question: And the activity at 10 µM [1, 3]?
Answer: 82.5%

Question: And the activity at 10 µM [1, 4]?
Answer: 91.7%

Question: What about the activity at 10 µM [1, 5] of the same molecule?
Answer: 93.7%

Question: And the activity at 100 µM [1, 2]?
Answer: 68.5%

Question: What about the activity at 100 µM [1, 3] of the same molecule?
Answer: 27.8%

Question: What about the activity at 100 µM [1, 4] of the same molecule?
Answer: 26.5%

Question: And the activity at 100 µM [1, 5]?
Answer: 25.6%

Question: And the minimal effective concentration ([1]; read-out: endo.mtl.18hr POD)?
Answer: 25.3 µM

Question: And the minimal effective concentration ([1]; read-out: endo.tlps.18hr POD)?
Answer: 12.7 µM

Question: And the minimal effective concentration ([1]; read-out: endo.tta.18hr POD)?
Answer: 21 µM

Question: What about the minimal effective concentration ([1]; read-out: endo.ttl.18hr POD) of the same molecule?
Answer: 25.6 µM

Question: What about the activity at 0.01 µM (HUVECs; [6]) of the same molecule?
Answer: 96.8%

Question: And the activity at 0.01 µM (HUVECs; [7])?
Answer: 110%

Question: And the activity at 0.01 µM (HUVECs; [8])?
Answer: 98.3%

Question: What about the activity at 0.01 µM (HUVECs; [9]) of the same molecule?
Answer: 87.1%

Question: What about the activity at 0.1 µM (HUVECs; [6]) of the same molecule?
Answer: 112%

Question: What about the activity at 0.1 µM (HUVECs; [7]) of the same molecule?
Answer: 133%

Question: And the activity at 0.1 µM (HUVECs; [8])?
Answer: 109%

Question: What about the activity at 0.1 µM (HUVECs; [9]) of the same molecule?
Answer: 98.7%

Question: What about the activity at 1 µM (HUVECs; [6]) of the same molecule?
Answer: 108%

Question: What about the activity at 1 µM (HUVECs; [7]) of the same molecule?
Answer: 110%

Question: And the activity at 1 µM (HUVECs; [8])?
Answer: 123%

Question: And the activity at 1 µM (HUVECs; [9])?
Answer: 113%

Question: What about the activity at 10 µM (HUVECs; [6]) of the same molecule?
Answer: 95%

Question: And the activity at 10 µM (HUVECs; [7])?
Answer: 103%

Question: What about the activity at 10 µM (HUVECs; [8]) of the same molecule?
Answer: 84.6%

Question: What about the activity at 10 µM (HUVECs; [9]) of the same molecule?
Answer: 77%

Question: What about the activity at 100 µM (HUVECs; [6]) of the same molecule?
Answer: 52.2%

Question: And the activity at 100 µM (HUVECs; [7])?
Answer: 35.8%

Question: And the activity at 100 µM (HUVECs; [8])?
Answer: 50.9%

Question: What about the activity at 100 µM (HUVECs; [9]) of the same molecule?
Answer: 56.1%

Question: What about the minimal effective concentration (HUVECs; read-out: huvec.mtl.18hr POD) of the same molecule?
Answer: 14.3 µM

Question: What about the minimal effective concentration (HUVECs; read-out: huvec.tlps.18hr POD) of the same molecule?
Answer: 27.2 µM

Question: And the minimal effective concentration (HUVECs; read-out: huvec.tta.18hr POD)?
Answer: 100 µM

Question: What about the minimal effective concentration (HUVECs; read-out: huvec.ttl.18hr POD) of the same molecule?
Answer: 100 µM

Question: `O=S(=O)(O)Oc1cc(Cl)c(-c2cc(Cl)ccc2Cl)cc1Cl` [4-yl PCB 52 sulfate] was tested. Which activity at 0.01 µM [1, 2] did it give?
Answer: 116%

Question: And the activity at 0.01 µM [1, 3]?
Answer: 87.8%

Question: What about the activity at 0.01 µM [1, 4] of the same molecule?
Answer: 122%

Question: And the activity at 0.01 µM [1, 5]?
Answer: 129%

Question: And the activity at 0.1 µM [1, 2]?
Answer: 108%

Question: What about the activity at 0.1 µM [1, 3] of the same molecule?
Answer: 115%

Question: What about the activity at 0.1 µM [1, 4] of the same molecule?
Answer: 115%

Question: What about the activity at 0.1 µM [1, 5] of the same molecule?
Answer: 119%

Question: And the activity at 1 µM [1, 2]?
Answer: 109%

Question: What about the activity at 1 µM [1, 3] of the same molecule?
Answer: 108%

Question: What about the activity at 1 µM [1, 4] of the same molecule?
Answer: 112%

Question: And the activity at 1 µM [1, 5]?
Answer: 119%

Question: What about the activity at 10 µM [1, 2] of the same molecule?
Answer: 73.9%

Question: And the activity at 10 µM [1, 3]?
Answer: 46.2%

Question: What about the activity at 10 µM [1, 4] of the same molecule?
Answer: 70%

Question: What about the activity at 10 µM [1, 5] of the same molecule?
Answer: 71.1%

Question: What about the activity at 100 µM [1, 2] of the same molecule?
Answer: 46.8%

Question: What about the activity at 100 µM [1, 3] of the same molecule?
Answer: 10.1%

Question: What about the activity at 100 µM [1, 4] of the same molecule?
Answer: 0.18%

Question: What about the activity at 100 µM [1, 5] of the same molecule?
Answer: 0.34%

Question: And the minimal effective concentration ([1]; read-out: endo.mtl.18hr POD)?
Answer: 7.44 µM

Question: And the minimal effective concentration ([1]; read-out: endo.tlps.18hr POD)?
Answer: 5.74 µM

Question: And the minimal effective concentration ([1]; read-out: endo.tta.18hr POD)?
Answer: 8.83 µM

Question: And the minimal effective concentration ([1]; read-out: endo.ttl.18hr POD)?
Answer: 9.64 µM

Question: What about the activity at 0.01 µM (HUVECs; [6]) of the same molecule?
Answer: 91.2%

Question: And the activity at 0.01 µM (HUVECs; [7])?
Answer: 86.7%

Question: What about the activity at 0.01 µM (HUVECs; [8]) of the same molecule?
Answer: 66.3%

Question: What about the activity at 0.01 µM (HUVECs; [9]) of the same molecule?
Answer: 59.7%

Question: What about the activity at 0.1 µM (HUVECs; [6]) of the same molecule?
Answer: 103%

Question: And the activity at 0.1 µM (HUVECs; [7])?
Answer: 108%

Question: What about the activity at 0.1 µM (HUVECs; [8]) of the same molecule?
Answer: 99.9%

Question: What about the activity at 0.1 µM (HUVECs; [9]) of the same molecule?
Answer: 89.7%

Question: And the activity at 1 µM (HUVECs; [6])?
Answer: 99%

Question: And the activity at 1 µM (HUVECs; [7])?
Answer: 111%

Question: And the activity at 1 µM (HUVECs; [8])?
Answer: 97.7%

Question: What about the activity at 1 µM (HUVECs; [9]) of the same molecule?
Answer: 87.2%

Question: What about the activity at 10 µM (HUVECs; [6]) of the same molecule?
Answer: 93.2%

Question: What about the activity at 10 µM (HUVECs; [7]) of the same molecule?
Answer: 84.7%

Question: What about the activity at 10 µM (HUVECs; [8]) of the same molecule?
Answer: 79.1%

Question: And the activity at 10 µM (HUVECs; [9])?
Answer: 70.9%

Question: And the activity at 100 µM (HUVECs; [6])?
Answer: 61.8%

Question: What about the activity at 100 µM (HUVECs; [7]) of the same molecule?
Answer: 26.3%

Question: What about the activity at 100 µM (HUVECs; [8]) of the same molecule?
Answer: 85.2%

Question: And the activity at 100 µM (HUVECs; [9])?
Answer: 94.3%

Question: And the minimal effective concentration (HUVECs; read-out: huvec.mtl.18hr POD)?
Answer: 14.6 µM

Question: And the minimal effective concentration (HUVECs; read-out: huvec.tlps.18hr POD)?
Answer: 10.1 µM

Question: What about the minimal effective concentration (HUVECs; read-out: huvec.tta.18hr POD) of the same molecule?
Answer: 100 µM

Question: And the minimal effective concentration (HUVECs; read-out: huvec.ttl.18hr POD)?
Answer: 100 µM
